# Source: PubChem BioAssay (NCI)
#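 Cultured in 96-well plates, cells were exposed to test compound for 48 hours across five concentrations. Definition used: TGI = concentration required for complete inhibition of growth.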
# Experiments:
# Assay in all cases: NCI anticancer screen, dose series, 48 h
# MDA-MB-231 breast = tested on: MDA-MB-231 breast
# NCI-H522 lung = tested on: NCI-H522 lung
# CAKI-1 renal = tested on: CAKI-1 renal
# M14 melanoma = tested on: M14 melanoma
# OVCAR-5 ovarian = tested on: OVCAR-5 ovarian
# MOLT-4 leukemia = tested on: MOLT-4 leukemia
# U251 CNS = tested on: U251 CNS
# SNB-75 CNS = tested on: SNB-75 CNS
# SN12C renal = tested on: SN12C renal
# UO-31 renal = tested on: UO-31 renal
# SF-268 CNS = tested on: SF-268 CNS
# COLO 205 colon = tested on: COLO 205 colon
# K-562 leukemia = tested on: K-562 leukemia
# HCT-15 colon = tested on: HCT-15 colon
# SW-620 colon = tested on: SW-620 colon
# HS 578T breast = tested on: HS 578T breast
# DU-145 prostate = tested on: DU-145 prostate
# TK-10 renal = tested on: TK-10 renal
# NCI-H23 lung = tested on: NCI-H23 lung
# BT-549 breast = tested on: BT-549 breast
# UACC-257 melanoma = tested on: UACC-257 melanoma
# OVCAR-3 ovarian = tested on: OVCAR-3 ovarian
# OVCAR-4 ovarian = tested on: OVCAR-4 ovarian
# MDA-N = tested on: MDA-N
# KM12 colon = tested on: KM12 colon
# SK-MEL-2 melanoma = tested on: SK-MEL-2 melanoma
# NCI/ADR-RES ovarian = tested on: NCI/ADR-RES ovarian
# T-47D breast = tested on: T-47D breast
# SK-MEL-5 melanoma = tested on: SK-MEL-5 melanoma
# 786-0 renal = tested on: 786-0 renal
# SK-MEL-28 melanoma = tested on: SK-MEL-28 melanoma
# SF-295 CNS = tested on: SF-295 CNS
# PC-3 prostate = tested on: PC-3 prostate
# HOP-62 NSCLC = tested on: HOP-62 NSCLC
# HCC-2998 colon = tested on: HCC-2998 colon
# EKVX NSCLC = tested on: EKVX NSCLC
# MCF7 breast = tested on: MCF7 breast
# NCI-H226 lung = tested on: NCI-H226 lung
# UACC-62 melanoma = tested on: UACC-62 melanoma
# RXF 393 renal = tested on: RXF 393 renal
# SK-OV-3 ovarian = tested on: SK-OV-3 ovarian
# SNB-19 CNS = tested on: SNB-19 CNS
# RPMI-8226 leukemia = tested on: RPMI-8226 leukemia
# OVCAR-8 ovarian = tested on: OVCAR-8 ovarian
# HCT-116 colon = tested on: HCT-116 colon
# CCRF-CEM leukemia = tested on: CCRF-CEM leukemia
# IGROV1 ovarian = tested on: IGROV1 ovarian
# ACHN renal = tested on: ACHN renal
# HT29 colon = tested on: HT29 colon
# MALME-3M melanoma = tested on: MALME-3M melanoma
# MDA-MB-435 = tested on: MDA-MB-435
# A549 NSCLC = tested on: A549 NSCLC
# HOP-92 NSCLC = tested on: HOP-92 NSCLC
# SF-539 CNS = tested on: SF-539 CNS
# NCI-H460 lung = tested on: NCI-H460 lung
# LOX IMVI melanoma = tested on: LOX IMVI melanoma
# HL-60(TB) leukemia = tested on: HL-60(TB) leukemia
smiles,measurement,setting,value
COC(=O)CCC1(C)C2CCC1(C)/C(=N/O)C2 (centres undefined),TGI,MDA-MB-231 breast,> 100 µM
same,TGI,NCI-H522 lung,> 100 µM
same,TGI,CAKI-1 renal,> 100 µM
same,TGI,M14 melanoma,> 100 µM
same,TGI,OVCAR-5 ovarian,> 100 µM
same,TGI,MOLT-4 leukemia,> 100 µM
same,TGI,U251 CNS,> 100 µM
same,TGI,SNB-75 CNS,> 100 µM
same,TGI,SN12C renal,> 100 µM
same,TGI,UO-31 renal,> 100 µM
same,TGI,SF-268 CNS,> 100 µM
same,TGI,COLO 205 colon,> 100 µM
same,TGI,K-562 leukemia,> 100 µM
same,TGI,HCT-15 colon,> 100 µM
same,TGI,SW-620 colon,> 100 µM
same,TGI,HS 578T breast,> 100 µM
same,TGI,DU-145 prostate,> 100 µM
same,TGI,TK-10 renal,> 100 µM
same,TGI,NCI-H23 lung,> 100 µM
same,TGI,BT-549 breast,> 100 µM
same,TGI,UACC-257 melanoma,> 100 µM
same,TGI,OVCAR-3 ovarian,> 100 µM
same,TGI,OVCAR-4 ovarian,> 100 µM
same,TGI,MDA-N,> 100 µM
same,TGI,KM12 colon,> 100 µM
same,TGI,SK-MEL-2 melanoma,> 100 µM
same,TGI,NCI/ADR-RES ovarian,> 100 µM
same,TGI,T-47D breast,> 100 µM
same,TGI,SK-MEL-5 melanoma,> 100 µM
same,TGI,786-0 renal,> 100 µM
same,TGI,SK-MEL-28 melanoma,> 100 µM
same,TGI,SF-295 CNS,> 100 µM
same,TGI,PC-3 prostate,> 100 µM
same,TGI,HOP-62 NSCLC,> 100 µM
same,TGI,HCC-2998 colon,> 100 µM
same,TGI,EKVX NSCLC,> 100 µM
same,TGI,MCF7 breast,> 100 µM
same,TGI,NCI-H226 lung,> 100 µM
same,TGI,UACC-62 melanoma,> 100 µM
same,TGI,RXF 393 renal,> 100 µM
same,TGI,SK-OV-3 ovarian,> 100 µM
same,TGI,SNB-19 CNS,> 100 µM
same,TGI,RPMI-8226 leukemia,> 100 µM
same,TGI,OVCAR-8 ovarian,> 100 µM
same,TGI,HCT-116 colon,> 100 µM
same,TGI,CCRF-CEM leukemia,> 100 µM
same,TGI,IGROV1 ovarian,> 100 µM
same,TGI,ACHN renal,> 100 µM
same,TGI,HT29 colon,> 100 µM
same,TGI,MALME-3M melanoma,> 100 µM
same,TGI,MDA-MB-435,> 100 µM
same,TGI,A549 NSCLC,> 100 µM
Cc1cc(C)nc(NS(=O)(=O)c2ccc(NN=c3c4ccccc4n(C)c4ccccc34)cc2)n1,TGI,MDA-MB-231 breast,> 100 µM
same,TGI,NCI-H522 lung,61.5 µM
same,TGI,CAKI-1 renal,> 100 µM
same,TGI,M14 melanoma,> 100 µM
same,TGI,OVCAR-5 ovarian,> 100 µM
same,TGI,MOLT-4 leukemia,79.6 µM
same,TGI,U251 CNS,> 100 µM
same,TGI,SNB-75 CNS,96.9 µM
same,TGI,SN12C renal,> 100 µM
same,TGI,UO-31 renal,71.7 µM
same,TGI,SF-268 CNS,> 100 µM
same,TGI,COLO 205 colon,> 100 µM
same,TGI,K-562 leukemia,66.2 µM
same,TGI,HOP-92 NSCLC,> 100 µM
same,TGI,HCT-15 colon,> 100 µM
same,TGI,SF-539 CNS,> 100 µM
same,TGI,SW-620 colon,> 100 µM
same,TGI,HS 578T breast,> 100 µM
same,TGI,DU-145 prostate,> 100 µM
same,TGI,TK-10 renal,> 100 µM
same,TGI,NCI-H23 lung,> 100 µM
same,TGI,BT-549 breast,> 100 µM
same,TGI,UACC-257 melanoma,> 100 µM
same,TGI,OVCAR-3 ovarian,> 100 µM
same,TGI,OVCAR-4 ovarian,99.3 µM
same,TGI,MDA-N,59.6 µM
same,TGI,KM12 colon,> 100 µM
same,TGI,SK-MEL-2 melanoma,58.8 µM
same,TGI,NCI/ADR-RES ovarian,> 100 µM
same,TGI,NCI-H460 lung,> 100 µM
same,TGI,T-47D breast,80.8 µM
same,TGI,SK-MEL-5 melanoma,62.9 µM
same,TGI,786-0 renal,> 100 µM
same,TGI,SK-MEL-28 melanoma,67.7 µM
same,TGI,LOX IMVI melanoma,96.7 µM
same,TGI,SF-295 CNS,> 100 µM
same,TGI,PC-3 prostate,> 100 µM
same,TGI,HL-60(TB) leukemia,> 100 µM
same,TGI,HOP-62 NSCLC,> 100 µM
same,TGI,HCC-2998 colon,89.8 µM
same,TGI,EKVX NSCLC,97.7 µM
same,TGI,MCF7 breast,55.7 µM
same,TGI,NCI-H226 lung,> 100 µM
same,TGI,UACC-62 melanoma,> 100 µM
same,TGI,RXF 393 renal,50.8 µM
same,TGI,SK-OV-3 ovarian,> 100 µM
same,TGI,SNB-19 CNS,> 100 µM
same,TGI,RPMI-8226 leukemia,> 100 µM
same,TGI,OVCAR-8 ovarian,> 100 µM
same,TGI,HCT-116 colon,> 100 µM
same,TGI,CCRF-CEM leukemia,77.6 µM
same,TGI,IGROV1 ovarian,> 100 µM
same,TGI,ACHN renal,77.4 µM
same,TGI,HT29 colon,> 100 µM
same,TGI,MALME-3M melanoma,91.3 µM
same,TGI,MDA-MB-435,69.1 µM
same,TGI,A549 NSCLC,> 100 µM
